pIC50: −log10 of the molar value. Entries after “also recorded” stand apart in the source; their conditions may differ. A value given as a limit tells only on which side of the number the result lay.

The term pIC50 denotes the IC50 on a negative log10 scale, so that one unit is a factor of ten. Lower therefore signals a large IC50. By solubility is commonly meant how much of the substance goes into solution per volume. A lower solubility goes with little dissolved substance.

For one series, the target named is T1, SUR1 (Rattus norvegicus, UniProt Q09429).
T1 construct: expressed in transfected cells; host or cells: HEK293t
T1 sequence (Q09429 whole entry): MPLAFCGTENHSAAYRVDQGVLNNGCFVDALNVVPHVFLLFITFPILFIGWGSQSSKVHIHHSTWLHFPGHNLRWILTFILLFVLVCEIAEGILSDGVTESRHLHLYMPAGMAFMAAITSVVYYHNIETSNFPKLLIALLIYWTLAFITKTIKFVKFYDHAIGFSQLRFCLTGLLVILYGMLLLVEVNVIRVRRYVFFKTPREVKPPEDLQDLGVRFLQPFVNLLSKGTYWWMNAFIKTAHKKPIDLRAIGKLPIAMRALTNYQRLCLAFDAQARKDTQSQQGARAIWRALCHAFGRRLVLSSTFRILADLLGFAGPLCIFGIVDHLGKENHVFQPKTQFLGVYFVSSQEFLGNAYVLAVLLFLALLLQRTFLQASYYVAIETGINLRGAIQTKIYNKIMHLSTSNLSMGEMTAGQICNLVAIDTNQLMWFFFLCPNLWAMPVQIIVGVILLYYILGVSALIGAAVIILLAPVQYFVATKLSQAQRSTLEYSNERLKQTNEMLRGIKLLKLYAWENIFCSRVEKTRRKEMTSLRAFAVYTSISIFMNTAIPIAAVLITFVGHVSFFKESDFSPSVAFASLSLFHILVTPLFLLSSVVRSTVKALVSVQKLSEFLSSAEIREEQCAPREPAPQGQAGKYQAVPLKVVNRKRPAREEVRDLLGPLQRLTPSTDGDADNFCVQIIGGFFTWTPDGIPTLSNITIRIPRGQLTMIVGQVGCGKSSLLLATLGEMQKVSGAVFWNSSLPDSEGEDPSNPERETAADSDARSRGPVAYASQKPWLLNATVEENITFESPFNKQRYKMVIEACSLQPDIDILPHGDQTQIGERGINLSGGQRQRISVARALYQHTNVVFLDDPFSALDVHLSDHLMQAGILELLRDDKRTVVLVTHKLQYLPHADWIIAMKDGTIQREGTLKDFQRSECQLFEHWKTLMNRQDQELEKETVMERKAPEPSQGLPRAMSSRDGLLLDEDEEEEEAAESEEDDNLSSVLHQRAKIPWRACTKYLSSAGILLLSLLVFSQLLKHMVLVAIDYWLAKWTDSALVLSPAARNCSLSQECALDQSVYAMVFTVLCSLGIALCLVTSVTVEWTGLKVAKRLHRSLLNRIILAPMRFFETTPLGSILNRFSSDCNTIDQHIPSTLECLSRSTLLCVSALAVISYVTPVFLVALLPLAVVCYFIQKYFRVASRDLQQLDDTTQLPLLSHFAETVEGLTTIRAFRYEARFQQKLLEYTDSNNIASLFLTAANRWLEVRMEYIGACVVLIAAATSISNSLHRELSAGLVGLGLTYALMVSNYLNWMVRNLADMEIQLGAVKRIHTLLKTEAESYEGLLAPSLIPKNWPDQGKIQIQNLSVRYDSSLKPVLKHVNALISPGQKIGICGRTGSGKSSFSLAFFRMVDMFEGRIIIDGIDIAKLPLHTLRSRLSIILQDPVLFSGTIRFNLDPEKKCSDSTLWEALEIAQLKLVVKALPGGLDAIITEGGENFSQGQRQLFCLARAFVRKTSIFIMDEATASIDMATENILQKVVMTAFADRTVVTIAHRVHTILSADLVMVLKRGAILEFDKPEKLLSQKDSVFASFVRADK
Kind of series: [3H]-glibenclamide displacement radioassay in SUR1-expressing HEK293t cells. It is filed as binding. Here is the method:
SUR1-expressing HEK293t cells were harvested and washed twice in assaying buffer containing in mM: 119 NaCl, 4.7 KCl, […], 1.2 KH2PO4, 1.2 MgSO4, 5 NaHCO3, and 20 HEPES, pH 7.4. In a 96-well plate, ∼200,000 cells/well were incubated for 50 min with [3H]-glibenclamide (PerkinElmer) and different concentrations of glimepiride (Sigma-Aldrich) or JB253. Incubation was terminated by rapid filtration through Whatman GF/C filters by means of a Brandel MWXR-96 TI harvester and filters were washed 3 times with ice-cold assay buffer. Radioactivity was counted 6 h after cell and filter lysis in 200 µL Rotiszint EcoPlus (Roth) using a Packard microbeta scintillation counter (PerkinElmer).
(§1) Data distribution was determined using the D'Agostino omnibus test. Non-multifactorial pairwise comparisons were made using either the Student's t-test. Interactions between multiple treatments were assessed using one-way ANOVA followed by pairwise comparisons using Bonferroni's post-hoc test. Effect sizes in islets/cells are usually sufficiently large that multiple animals/independent replication is a more important determinant of power in studies requiring statistical comparison. Non-linear regression was used to calculate the EC50 of normalized and log-transformed concentration-response curves. For [3H]-glibenclamide displacement assays, data points were fitted to the Hill equation before calculation of the halfmax value. In all cases, analysis was performed using Graphpad Prism (Graphpad Software) and IgorPro, and experimental numbers reported as independent biological replicates. No animals or data were excluded from the analysis and results were considered significant at P<0.05.

In a further series the test system is KATP channels. Nature of the series: Whole cell patch clamp of KATP currents in MIN6 beta cells. It is filed as cell-based. The settings on record: illumination 470 ± 20 nm, JB253 concentration printed as 10 mM. Here is the method:
MIN6 cells (obtained from Dr Jun-ichi Miyazaki, Osaka University, see Miyazaki et al., 1990)) were cultured in DMEM supplemented with 15% FBS, 1% glutamine, 2% HEPES buffer, 0.0005% β-mercaptoethanol and 1% penicillin/streptomycin. Cells were seeded onto glass coverslips 24 hrs before whole cell patch clamp experiments using micropipettes generated from thin-walled borosilicate capillaries (3-6 MΩ). Bath solution contained in mM: 3 KCl, 118 NaCl, 25 HEPES, 3 MgCl2 and 2 CaCl2. Pipette solution contained in mM: 150 KCl, 3 MgCl2, 5 EGTA, 10 HEPES, 0.3 K2ATP (pH 7.2), and the holding potential was -60 mV. Illumination was provided using a X-Cite 120 mercury arc lamp (Lumen Dynamics) with a bandpass filter (470 ± 20 nm). Voltage ramps from -20 mV to -120 mV (500 ms duration) were applied every 5 s to produce current-voltage relationships in the presence and absence of JB253. All cells lines were regularly mycoplasma tested.
(In general: The patch-clamp technique gives a direct electrical read-out from membranes.)

The subject of another series is isolated murine islets. Kind of series: Insulin secretion from isolated islets (static incubation, radioimmunoassay). It is filed as cell-based, mouse. As for the experimental part:
Insulin secretion was measured from 6 islets per well, incubated at 37 °C for 30 min in 0.5 ml of Krebs-HEPES-bicarbonate (KHB) solution (containing in mM: 130 NaCl, 3.6 KCl, 1.5 CaCl2, 0.5 MgSO4, 0.5 NaH2PO4, 2 NaHCO3, 10 HEPES, and 0.1 % (wt/vol) BSA, pH 7.4) containing the indicated glucose concentration and tolbutamide (100 µM), glimeperide (50 µM), diazoxide (250 µM) and JB253 (50 µM). Illumination (λ = 405 ± 20 nm and 485 ± 6 nm) was performed using a Fluostar Optima microplate reader (BMG Labtech) set to deliver 30 s of light every 2 min to the designated wells. Insulin concentrations were determined in duplicate using specific radioimmunoassay (EMD Millipore).

For the next series, the system named is mouse islets. Nature of the series: Calcium imaging (fMCI) of beta cell activity in intact mouse islets. It is filed as cell-based. The settings on record: mouse islets. Here is the method:
Male and female CD1 and C57BL6 mice (8-20 weeks) were maintained in a specific pathogen-free facility under a 12h light-dark cycle with ad libitum access to water and food. Animals were euthanized using a schedule-1 method and pancreatic islets isolated by collagenase digestion. All procedures were regulated by the Home Office according to the Animals (Scientific Procedures) Act 1986 of the United Kingdom (PPL 70/7349), and study approval granted by the Animal Welfare and Ethical Review Body (AWERB) of Imperial College. No randomization was used for animal experimentation, since mice were only used as tissue donors.
Islets were loaded for 30-45 min in fluo2-AM (10 µM) or for 2-5 min with X-Rhod 1 (5 µM) diluted with a mixture of DMSO (0.01%, wt/vol) and pluronic acid (0.001%, wt/vol; all Invitrogen) in a bicarbonate buffer containing in mM: 120 NaCl, 4.8 KCl, 1.25 NaH2PO4, 24 NaHCO3, 2.5 CaCl2, 1.2 MgCl2 and 5 D-glucose. fMCI was performed using a Zeiss Axiovert M200 fitted with a Nipkow spinning-disk head (Yokogawa CSU-10) and a 10x/0.3NA objective adjusted for chromatic aberration (EC Plan-Neofluar, Zeiss). Pulsed excitation (frequency = 0.5 Hz; exposure = 263 ms) was delivered at 491 nm and emitted signals recorded at 500-550 nm with a back-illuminated 16-bit EM-CCD camera (ImageEM 9100-13; Hamamatsu). During recording, islets were maintained at 35-36 °C in the presence of 50 µM JB253 using a custom-manufactured perfusion and heating system (Digital Pixel). Drugs were introduced through the perfusion system at the indicated time points and concentrations. Violet light was delivered by a 405 ± 5 nm laser coupled to the side port of the microscope and configured to fill the back of the objective with light using an Optospot (Cairn Research). Blue light was delivered using 440 ± 5 nm and 491 ± 5 nm diode lasers controlled by a laser merge module (Spectral Applied Research) to allow simultaneous exposure and acquisition. For single islet targeting, a 473 ± 5 nm laser was coupled to a custom-manufactured dichroic array (Cairn Research), allowing user-directed steering of a collimated laser spot across the field of view. Signals were normalized using F/Fmin where F is fluorescence at a given timepoint and Fmin is minimum fluorescence.
as §1

Series [1] can be described thus: Water solubility on dilution from DMSO stock. It is filed as physicochemical. The settings on record: kinetic from dmso stock, diluted from a 50 mM stock solution in DMSO.

Turning to `CCN(CC)c1ccc(/N=N/c2ccc(S(=O)(=O)NC(=O)NC3CCCCC3)cc2)cc1` [JB253, (E)-N-(cyclohexylcarbamoyl)-4-((4-(diethylamino)phenyl)diazenyl)benzenesulfonamide], on SUR1 ([3H]-glibenclamide displacement, unaffected by illumination), the “lower affinity to SUR1 compared to glimepiride” value worked out at 1000 fold. At SUR1 (displacement of [3H]-glibenclamide, SUR1-expressing HEK293t cells, n = 3, cis-state may relax thermally during washing), this compound had a pIC50 of 4.75. Besides, the “block of KATP (hyperpolarizing) currents” value in the series on KATP channels is reported as “reversibly blocked; also recorded: only blocks the KATP current during illumination”. Also, the “insulin secreted following illumination” value with isolated murine islets (50 µM JB253, 5 mM glucose, 405 nm or 485 nm, 30 min) is listed as 4-8 fold. In the series on isolated murine islets (50 µM JB253, dark, 30 min), the “insulin release in the dark versus control (5 mM glucose)” value is “similar”. The “stimulation of insulin secretion compared with glimepiride” value with isolated murine islets (485 nm light, JB253 50 µM, glimepiride 50 µM) is reported as “equipotent to glimepiride”. In addition, the “fluo-2-loaded population responding to illumination with synchronous Ca^2+ rises” value in the series on mouse islets (50 µM JB253, 405 nm laser, n = 10 recordings) is recorded as 54%. The “responsive X-Rhod-1-loaded cells” value in the series on mouse islets (50 µM JB253, 405 nm, n = 3 recordings) was found to be 63%. In addition, in the series on mouse islets (concentration-response, dark), the “stimulation of [Ca^2+]i” value is given as “largely ineffective”. Further, the “concentration-response curve for glimepiride in the presence of trans-JB253” value with mouse islets (saturating concentration (100 µM) of trans-JB253, dark) was “right-shifted”. In addition, the solubility in series [1] was ≥ 100 µM.

For the origin of these results see patent publication EP3009422A1, “Photo-switchable sulfonylureas and their uses” (Ludwig-Maximilians-Universität München, priority 2014, dated 2016).
